# Laboratory results published in patent publication US20240109893A1, “PREPARATION AND APPLICATION METHOD OF HETEROCYCLIC COMPOUNDS AS KRAS INHIBITOR” (SHANGHAI KECHOW PHARMA, INC., priority 2020, published 2024).
# Key:
# [1] = Pharmacokinetic experiment in SD rats; type: in vivo; details: male, Sprague-Dawley, rat, plasma, po, 10 mg/kg; read-out: Oral bioavailability, F %
# Description: Pharmacokinetic Experiment in SD Rats:
# 1. SPF male rats were randomly divided into groups. The compounds to be tested were separately administered by intravenous injection and oral gavage, with 3 animals for each compound to be tested in each mode of administration. The administration solvent was 5% DMSO+10% Solutol+85% normal saline or 85% PBS, and the substances to be tested were dissolved in the solvent to obtain clear solutions. Administration concentration and volume: 1) a single intravenous injection of 0.6 mg/mL of the compound to be tested, with an administration volume of 5 mL/kg and an administration dosage of 3 mg/kg; and 2) a single oral gavage of 1 mg/mL of the compound to be tested, with an administration volume of 10 mL/kg and an administration dosage of 10 mg/kg. The rats were fasted overnight (10-14 h) before administration and fed 4 h after administration.
# 2. Blood was collected via the jugular vein or by other appropriate methods at 200 μL per time point and anticoagulated with K2-EDTA, and after collection, the blood was placed on ice and centrifuged for plasma within 1 h (centrifugation conditions: 6800 g, 6 min 2-8° C.). The points for blood sampling from the animals in the intravenous injection group were respectively: before administration, and 5 min, 15 min, 30 min, 1 h, 2 h, 4 h, 8 h, and 24 h after administration; and the points for blood sampling from the animals in the oral administration group were respectively: before administration, and 15 min, 30 min, 1 h, 2 h, 4 h, 6 h, 8 h, and 24 h after administration.
# 3. The blood concentration was detected, and the pharmacokinetic parameter AUC(0-t) was calculated by Phoenix WinNonlin based on the blood concentration data at various time points. When the pharmacokinetic parameters were calculated, the BLQ before Cmax (including ‘No peak’) was calculated as 0: and BLQ after Cmax (including ‘No peak’) was not involved in the calculation.
# KRAS G12C-GDP = KRAS G12C-GDP (Homo sapiens (Human), UniProt P01116, G12C); assay: KRAS G12C-GDP exchange test (SOS/cRAF/GTP, HTRF); type: biochemical; details: 1 h premix with compound, 2 h reaction with SOS, cRAF, GTP
# Sequence of KRAS G12C-GDP (P01116-2 other isoform, or with tags, fused parts or gaps G12C): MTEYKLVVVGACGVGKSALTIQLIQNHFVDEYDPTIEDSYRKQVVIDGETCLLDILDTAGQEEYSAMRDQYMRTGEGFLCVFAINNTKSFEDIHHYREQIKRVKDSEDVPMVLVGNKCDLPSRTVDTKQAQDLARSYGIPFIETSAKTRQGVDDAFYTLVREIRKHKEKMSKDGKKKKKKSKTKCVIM
# Description: 2. A mixture of SOS (Pharmaron, ZZY-20190823), cRAF (Pharmaron, ZZY-20190823), GTP (Sigma, A6885-100MG), MAb Anti 6HIS-d2/MAb Anti GST-Eu (Cisbio, 61HISDLB/61GSTKLB) was added for a catalyzed reaction for 2 h.
# 3. The fluorescence signals of the emitted light at 615 nm and 665 nm under 320 nm excitation light were read by Biotek Microplate Reader (Synergy4).
# 4. The IC50 (median inhibitory concentration) of the compound was obtained by the following non-linear fitting formula: Y=Bottom+(Top−Bottom)/(1+10^((Log IC50−X)*Hill Slope)), and the data were analyzed by Graphpad 6-0 software.
# H358 cells = assay: Cell activity experiment: activity test of H358 cells (MTT, 5 days); type: cell-based; details: 5 days incubation, absorbance 492 nm
# Procedure, shortened: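 Viability was read by MTT: 4 h dye incubation, DMSO solubilisation, absorbance at 492 nm. This followed 5 days' treatment (37° C., 5% CO2) of H358 cells, pre-grown 24 h, with eight-point 3-fold dilutions up to 10000 nM final, 0.5% DMSO final, triplicate wells.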
bioavailability [1] [%],IC50 (KRAS G12C-GDP) [nM],IC50 (H358 cells) [nM],"IC50 (H358 cells; Homo sapiens, NCI-H358, 120 h) [nM]",Compound
16.9,0.59,4,–,"C=C(F)C(=O)N1CCN(c2nc(OC[C@@]34CCCN3C[C@H](F)C4)nc3c(F)c(-c4cccc5c4CC4CC54)ncc23)C[C@@H]1CC#N (single isomer, unassigned) [Example 879]"
25.9,1.02,2.65,–,"C=C(F)C(=O)N1CCN(c2nc(OC[C@@]34CCCN3C[C@H](F)C4)nc3c(F)c(-c4cccc5c4CC4CC54)ccc23)C[C@@H]1CC#N (single isomer, unassigned) [Example 887]"
–,10.6,–,1,"C=CC(=O)N1CCN(c2nc(OCC34CCCN3CCC4)nc3c(F)c(-c4cccc5c4CCCC5)ncc23)C[C@@H]1CC#N [Example 2, (S)-2-(1-acryloyl-4-(8-fluoro-2-((tetrahydro-1H-pyrrolizin-7a(5H)-yl)methoxy)-7-(5,6,7,8-tetrahydronaphthalen-1-yl)pyridino[4,3-d]pyrimidin-4-yl)piperazin-2-yl)acetonitrile]"
–,13.8,–,3.5,"C=C(F)C(=O)N1CCN(c2nc(OCC34CCCN3CCC4)nc3c(F)c(-c4cccc5c4CCCC5)ncc23)C[C@@H]1CC#N [Example 3, (S)-2-(4-(8-fluoro-2-((tetrahydro-1H-pyrrolizin-7a(5H)-yl)methoxy)-7-(5,6,7,8-tetrahydronaphthalen-1-yl)pyridino[4,3-d]pyrimidin-4-yl)-1-(2-fluoroacryloyl)piperazin-2-yl)acetonitrile]"
–,8,–,60,"C=C(F)C(=O)N1CC[C@@H]2[C@H]1CN2c1nc(OC[C@@H]2CCCN2C)nc2c(F)c(-c3cccc4c3CCCC4)ncc12 [Example 10, 2-fluoro-1-((1R,5R)-6-(8-fluoro-2-(((S)-1-methylpyrrolidin-2-yl)methoxy)-7-(5,6,7,8-tetrahydronaphthalen-1-yl)pyridino[4,3-d]pyrimidin-4-yl)-2,6-diazabicyclo[3.2.0]hept-2-yl)prop-2-en-1-one]"
–,1.65,–,30,"C=CC(=O)N1CCN(c2nc(OC[C@@H]3CCCN3C)nc3c(F)c(-c4ccc(F)c5c4CCCC5)ncc23)C[C@@H]1CC#N [Example 17, 2-((S)-1-acryloyl-4-(8-fluoro-7-(4-fluoro-5,6,7,8-tetrahydronaphthalen-1-yl)-2-(((S)-1-methylpyrrolidin-2-yl)methoxy)pyridino[4,3-d]pyrimidin-4-yl)piperazin-2-yl)acetonitrile]"
–,1.34,–,15,"C=CC(=O)N1CCN(c2nc(OC[C@@H]3CCCN3C)nc3cc(-c4cccc5cccc(Cl)c45)ccc23)C[C@@H]1CC#N [Example 73, 2-((S)-1-acryloyl-4-(7-(8-chloronaphthalen-1-yl)-2-(((S)-1-methylpyrrolidin-2-yl)methoxy)quinazolin-4-yl)piperazin-2-yl)acetonitrile]"
–,8.9,–,30,"C=CC(=O)N1CCN(c2nc(OC[C@@H]3CCCN3C)nc3nc(-c4cccc5cccc(Cl)c45)ccc23)C[C@@H]1CC#N [Example 254, 2-((S)-1-acryloyl-4-(7-(8-chloronaphthalen-1-yl)-2-(((S)-1-methylpyrrolidin-2-yl)methoxy)pyridino[2,3-d]pyrimidin-4-yl)piperazin-2-yl)acetonitrile]"
–,9.91,355,–,"C=CC(=O)N1CCN(c2nc(OC[C@@H]3CCCN3C)nc3nc(-c4cccc5c4CCCC5)ccc23)C[C@@H]1CC#N [Example 286, 2-((S)-1-acryloyl-4-(2-(((S)-1-methylpyrrolidin-2-yl)methoxy)-7-(5,6,7,8-tetrahydronaphthalen-1-yl)pyridino[2,3-d]pyrimidin-4-yl)piperazin-2-yl)acetonitrile]"
2.35,2.4,–,3.4,"C=CC(=O)N1CCN(c2nc(OC[C@@H]3CCCN3C)nc3c(F)c(-c4cccc5cccc(Cl)c45)ccc23)C[C@@H]1CC#N [Example 358, 2-((S)-1-acryloyl-4-(7-(8-chloronaphthalen-1-yl)-8-fluoro-2-(((S)-1-methylpyrrolidin-2-yl)methoxy)quinazolin-4-yl)piperazin-2-yl)acetonitrile]"
11.6,–,–,1.5,"C=CC(=O)N1CCN(c2nc(OC[C@@]34CCCN3C[C@H](F)C4)nc3c(F)c(-c4cccc5cccc(Cl)c45)ccc23)C[C@@H]1CC#N [Example 367, 2-((2S)-1-acryloyl-4-(7-(8-chloronaphthalen-1-yl)-8-fluoro-2-((((2R,7aS)-2-fluorotetrahydro-1H-pyrrolizin-7a(5H))-yl)methoxy)quinazolin-4-yl)piperazin-2-yl)acetonitrile]"
–,2.23,–,70,"C=CC(=O)N1CCN(c2nc(OC[C@@H]3CCCN3C)nc3cc(-c4cccc5cccc(Cl)c45)c(Cl)cc23)C[C@@H]1CC#N [Example 465, 2-((S)-1-acryloyl-4-(6-chloro-7-(8-chloronaphthalen-1-yl)-2-(((S)-1-methylpyrrolidin-2-yl)methoxy)quinazolin-4-yl)piperazin-2-yl)acetonitrile]"
–,4.52,–,809,"C=CC(=O)N1CCN(c2nc(OC[C@@H]3CCCN3C)nc3cc(-c4cccc5ccc(F)c(Cl)c45)cnc23)C[C@@H]1CC#N [Example 840, 2-((S)-1-acryloyl-4-(7-(8-chloro-7-fluoronaphthalen-1-yl)-2-(((S)-1-methylpyrrolidin-2-yl)methoxy)pyridino[3,2-d]pyrimidin-4-yl)piperazin-2-yl)acetonitrile]"
–,0.59,–,4.4,"C=CC(=O)N1CCN(c2nc(OCC3(CN4CCCC4)CC3)nc3c(F)c(-c4cccc5cccc(Cl)c45)ncc23)C[C@@H]1CC#N [Example 854, (S)-2-(1-acryloyl-4-(7-(8-chloronaphthalen-1-yl)-8-fluoro-2-((1-(pyrrolidin-1-ylmethyl)cyclopropyl)methoxy)pyridino[4,3-d]pyrimidin-4-yl)piperazin-2-yl)acetonitrile]"
28.6,0.89,–,0.7,C=C(F)C(=O)N1CCN(c2nc(OC[C@@H]3CCCN3C)nc3c(F)c(-c4cccc5cccc(Cl)c45)ccc23)C[C@@H]1CC#N [Example 903]
30.3,0.93,–,0.4,"C=C(F)C(=O)N1CCN(c2nc(OC[C@@]34CCCN3C[C@H](F)C4)nc3c(F)c(-c4cccc5cccc(Cl)c45)ccc23)C[C@@H]1CC#N [Example 904, 2-((S)-4-(7-(8-chloronaphthalen-1-yl)-8-fluoro-2-((2R,7aS)-2-fluorotetrahydro-1H-pyrrolizin-7a(5H)-methoxy)quinazolin-4-yl)-1-(2-fluoroacryloyl)piperazin-2-yl)acetonitrile]"
28.5,–,–,0.4,"C=C(F)C(=O)N1CCN(c2nc(OC[C@@]34CCCN3C[C@H](F)C4)nc3c(F)c(-c4cccc5ccc(F)c(Cl)c45)ccc23)C[C@@H]1CC#N [Example 914, 2-((S)-4-(7-(8-chloro-7-fluoronaphthalen-1-yl)-8-fluoro-2-((2R,7aS)-2-fluorotetrahydro-1H-pyrrolizin-7a(5H)-ylmethoxy)quinazolin-4-yl)-1-(2-fluoroacryloyl)piperazin-2-yl)acetonitrile]"
